# Assay results published in PMC3479139, “Diverse Small Molecule Inhibitors of Human Apurinic/Apyrimidinic Endonuclease APE1 Identified from a Screen of a Large Public Collection” (PLoS ONE, 2012).
# What was measured:
# APE1 [1] = target: T1, APE1 (Homo sapiens, UniProt P27695); experiment: Fluorogenic kinetic qHTS APE1 incision assay (primary screen and retest of cherrypicked samples); type: biochemical;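 note: purified APE1 cleaving a fluorophore/dark-quencher labelled 17-mer duplex DNA bearing a tetrahydrofuran AP site, fluorescence rise followed kinetically over the first 2 min, inhibition normalized to controls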
# T1 construct: made in house
# T1 sequence (P27695 whole entry): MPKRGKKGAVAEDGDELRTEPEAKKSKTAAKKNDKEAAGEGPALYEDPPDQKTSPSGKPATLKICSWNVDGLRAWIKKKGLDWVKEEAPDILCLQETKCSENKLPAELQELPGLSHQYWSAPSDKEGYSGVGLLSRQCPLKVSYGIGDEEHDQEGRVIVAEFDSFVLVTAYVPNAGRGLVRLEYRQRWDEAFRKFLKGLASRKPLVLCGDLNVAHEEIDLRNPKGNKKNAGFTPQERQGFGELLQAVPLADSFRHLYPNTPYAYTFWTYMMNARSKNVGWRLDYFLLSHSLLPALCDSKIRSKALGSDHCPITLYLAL
# APE1 [2] = target: T1, APE1; experiment: Gel-based APE1 incision assay with fluorescence (TAMRA) detection; type: biochemical
# Protocol: To test the compounds’ inhibitory activity after the primary screen, two assays designed to monitor the cleavage of substrate to product through electrophoretic separation were utilized. The radiotracer incision assay, utilizing a ^32P-labeled substrate, was performed essentially as described [21], [31], [32]. Incision reactions utilizing ^32P-labeled substrate were carried out for 5 min at 37°C. After the addition of an equal volume of stop buffer (0.05% bromophenol blue and xylene cyanol, 20 mM EDTA, 95% formamide), the substrate and product were separated on a standard polyacrylamide denaturing gel and quantified by PhosphorImager analysis [32]. […] APE1 cleavage of the substrate results in a 18-mer TAMRA-labeled fragment which was separated by a non-denaturing polyacrylamide gel electrophoresis and quantitated in a Gel Doc XR imaging system, BioRad (Hercules, CA). The advantage of this assay is that it can be used in a relatively high throughput mode with the inhibitors tested at a range of concentrations (0.17 µM to 125 µM was used here). APE1 (0.15 nM) was added to a reaction mixture of 20 µL containing assay buffer (40 mM HEPES pH 7.5, 50 mM NaCl, 1 mM MgCl2 and 2 mM DTT), and labeled ds DNA substrate (final 75 nM). The mixture was incubated at RT for 15 min, and the reaction was stopped by the addition 20 µL of 2X dye stop solution (10% glycerol, 20 mM EDTA and bromophenol blue). Then 10 µL of the mixture was resolved on 20% polyacrylamide gel in 1X Tris-borate EDTA running buffer at 250 V for 40 min.
# To eliminate false positive hits, all 595 confirmed molecules were tested for their ability to inhibit APE1 incision activity using biochemical assays that involve electrophoretic separation of the substrate and cleavage product.
# [3] = target: double-stranded 17-mer DNA fragment; experiment: ThO (Thiazole Orange) DNA displacement assay; type: binding; conditions: for IC50: read-out: ThO-DNA binding IC50;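 for all read-outs here: miniaturized displacement of the intercalating dye from unlabeled duplex DNA, used to flag nonspecific DNA binders, chiefly intercalators, groove binders may be missed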
# Description: The double-stranded 17-mer DNA fragment used in the ThO DNA binding assay was of the same sequence as the fluorogenic HTS substrate but carried no dye labels.
# (§1) In order to screen out nonselective compounds, such as non-specific DNA binders and inhibitors of related enzymes, we used a miniaturized ThO DNA displacement assay and a counterscreen against the bacterial endonuclease E. coli Endo IV, respectively, following the previously published protocols [21].
# To detect screening hits that inhibit APE1 activity through non-specific DNA interactions, we employed a previously established miniaturized ThO dye displacement assay [21]. […] We note that the ThO assay reports primarily on DNA binders acting through intercalation, while potentially missing other types of DNA binders, such as those acting through the minor groove.
# E. coli Endo IV = target: T2, E. coli Endo IV (Escherichia coli, UniProt P0A6C1); experiment: E. coli Endo IV profiling counterscreen; type: biochemical; conditions: for IC50: read-out: EndoIV IC50;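 for all read-outs here: selectivity counterscreen of candidate APE1 inhibitors against the bacterial endonuclease Endo IV, run in the same assay format as the primary APE1 high-throughput screen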
# T2 construct: made in house
# Description: as §1
# To probe the selectivity of the candidate APE1 inhibitors, we tested them against E. coli EndoIV [36], employing the same assay as used in the HTS.
# APE1 [4] = target: T1, APE1; experiment: Fluorescence polarization (FP) displacement assay of APE1 binding to AP-DNA probe; conditions: read-out: FP IC50;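 note: TAMRA 5′-labeled duplex DNA with THF abasic site (5 nM) and APE1 (20 nM), Mg2+-free buffer, 15 min at room temperature, inhibition seen as lowered polarization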
# APE1 [5] = target: T1, APE1; experiment: Gel-based radiotracer (32P) APE1 incision assay; type: biochemical; set-up: concentration or dose not given beside the values; conditions: percent incision shown; entries 1-112;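 note: APE1 incision reactions ran 5 min at 37 °C, with cleaved product and intact substrate resolved electrophoretically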
# [6] = initial quantitative high-throughput screen, read-out: APE1 qHTS IC50
# [7] = retest of cherrypicked sample, read-out: APE1 Retest IC50
# [8] = entries 113-223: fluorophore detection, estimated IC50, read-out: Gel-based electrophoretic separation assay with fluorophore detection, estimated IC50 (column headed Radiotracer Assay (%Activity))
# [9] = estimated IC50, fluorophore detection, entries 113-223, read-out: F-PAGE Assay IC50
SMILES,IC50 (APE1 [1]; [6]),IC50 (APE1 [1]; [7]),IC50 (APE1 [2]; [8]),IC50 [3],IC50 (E. coli Endo IV),IC50 (APE1 [4]),IC50 (APE1 [2]; [9]),Radiotracer Assay (%Activity) (APE1 [5]),Concentration response against EndoIV (E. coli Endo IV),ThO assay signal behaviour (autofluorescence interference) [3]
O=C(C[C@@H]1C/C=C\C[C@H](NC(=O)OCC2c3ccccc3-c3ccccc32)C(=O)OC[C@@H]2CCCN2C1=O)NCCO [MLS002320455],9.5 µM,10.2 µM,22.4 µM,> 57 µM,> 57 µM,> 57 µM,,,,
CCOC(=O)C1=C(C)N=c2s/c(=C\c3ccc(OCC(=O)O)cc3)c(=O)n2C1c1ccc(Cl)cc1 (stereo not shown) [MLS001178472],10.6 µM,14.5 µM,11.2 µM,> 57 µM,> 57 µM,> 57 µM,,,,
NS(=O)(=O)c1ccc(N=Nc2ccc(=O)[nH]c2O)cc1 [MLS000738241],7.5 µM,12.9 µM,,> 57 µM,> 57 µM,> 57 µM,3.5 µM,,,
NS(=O)(=O)c1cc(C(=O)NC2CCSc3ccccc32)ccc1Cl (stereo not shown) [MLS001233727],0.1 µM,0.3 µM,,> 57 µM,> 57 µM,> 57 µM,0.1 µM,,,
O=C(c1cccc(-n2cccc2)c1)N1CCN(S(=O)(=O)c2ccccc2)CC1 [MLS001139594],1.5 µM,11.5 µM,,> 57 µM,> 57 µM,> 57 µM,2.5 µM,,,
COc1ccc(OCCOc2ccc(/C=C3\C(=N)N4N=C(C)SC4=NC3=O)cc2)cc1 [MLS001359901],9.5 µM,5.8 µM,10 µM,> 57 µM,> 57 µM,> 57 µM,,,,
O=C(COC(=O)c1ccccc1)Nc1ncc([N+](=O)[O-])s1 [MLS002171184],3.4 µM,11.5 µM,,32.4 µM,> 57 µM,> 57 µM,1.6 µM,,,
CCC(C)C(=O)OCC1(c2ccc(C)cc2OC(=O)C(C)C)CO1 (stereo not shown) [MLS000876981],8.9 µM,11.2 µM,,> 57 µM,> 57 µM,> 57 µM,,36%,,
Cc1c(O)cc2c(c1O)C(=O)CC(c1ccc(O)cc1)O2 (stereo not shown) [MLS000876957],1.6 µM,4.5 µM,,> 57 µM,> 57 µM,> 57 µM,,44%,,
Cc1cc(C=O)c(C)n1-c1ccc(Cl)c(C(=O)O)c1 [MLS000676588],5.6 µM,8.9 µM,,> 57 µM,> 57 µM,> 57 µM,,31%,,
O=C(NC1CC1)c1cc(-c2ccco2)nc2ccccc12 [MLS001005620],11.2 µM,4.4 µM,,> 57 µM,> 57 µM,> 57 µM,,17%,,
CC(=O)Oc1cc2cccc(OC(C)=O)c(=O)c2c(OC(C)=O)c1OC(C)=O [MLS001049122],0.4 µM,6.3 µM,,> 57 µM,> 57 µM,> 57 µM,,37%,,
Oc1cc(O)c2c(c1)OC(c1ccc(O)c(O)c1)C(O)C2 (stereo not shown) [NCGC00095270],3.2 µM,2.8 µM,,> 57 µM,> 57 µM,> 57 µM,,35.9%,,
COc1cc(N(C)C)cc(CN(C)CCc2ccc([N+](=O)[O-])cc2)c1O [NCGC00165741],3.2 µM,0.3 µM,,> 57 µM,> 57 µM,> 57 µM,,10.6%,,
CCN(CC)c1ccc(C(=C2C=CC(=[N+](CC)Cc3cccc(S(=O)(=O)[O-])c3)C=C2)c2ccc(N(CC)Cc3cccc(S(=O)(=O)O)c3)cc2)cc1 [NCGC00166058],31.6 µM,25.1 µM,,35.5 µM,28.2 µM,31.6 µM,,13.4%,complete concentration response curves,
O=C(CSc1nc(-c2ccc(F)cc2)nc2c1Cc1ccccc1O2)Nc1ccc(C(=O)O)cc1 [MLS000673045],12.6 µM,4.5 µM,,3.2 µM,14.1 µM,> 57 µM,,36%,,
O=c1oc2c(O)c(O)cc3c(=O)oc4c(O)c(O)cc1c4c23 [NCGC00094975],0.01 µM,0.01 µM,,0.1 µM,> 57 µM,31.6 µM,,2.4%,,
O=C1CC(=O)N(Cc2ccco2)C(=O)N1 [MLS000062734],10 µM,5.6 µM,,> 57 µM,> 57 µM,> 57 µM,,14%,,
O=c1ccc2[n+]([O-])c3ccc([O-])cc3oc-2c1.[Na+] [MLS000778776],25.1 µM,12.4 µM,,> 57 µM,4.5 µM,0.02 µM,,5%,,
N#Cc1ccccc1CN1C(=O)S/C(=C/c2cccn2-c2cccc(C(=O)O)c2)C1=O [MLS000539676],19.9 µM,14.1 µM,,> 57 µM,> 57 µM,> 57 µM,,25%,,
CC1(CC(=O)N/N=C/c2cc([N+](=O)[O-])c(O)cc2O)OCCO1 [MLS000548032],14.1 µM,12.6 µM,,> 57 µM,> 57 µM,> 57 µM,,13%,,
Cc1ccc(S(=O)(=O)Nc2csc(C)c2C(=O)O)cc1 [MLS000850015],11.2 µM,15.8 µM,,> 57 µM,> 57 µM,> 57 µM,,49%,,
Cc1ccccc1N=C1NC(=O)/C(=C/c2cccn2-c2cccc(C(=O)O)c2)S1 [MLS000704580],17.8 µM,11.2 µM,,> 57 µM,> 57 µM,> 57 µM,,7%,,
O=C1C=CC2=C3c4cc(O)c(O)cc4CC3(O)COC2=C1O (stereo not shown) [NCGC00095664],0.1 µM,0.1 µM,,11.2 µM,> 57 µM,15.8 µM,,4.1%,,
NC(=O)Cn1c(=O)n(Cc2ccco2)c(=O)c2c3c(sc21)CCCCC3 [MLS000559128],31.6 µM,10 µM,,> 57 µM,> 57 µM,7.1 µM,,21%,,
Cc1c2c(c(O)c3c(O)cccc13)C(=O)O[C@H]2C1C(N(C)C)C(O)=C(C(N)=O)C(=O)[C@H]1O (stereo partly shown) [NCGC00163605],2 µM,1.6 µM,,,> 57 µM,2.2 µM,,2.7%,,strong dose-dependent fluorescence signal increase
N#C/C(=C/c1cccn1-c1cccc(C(=O)O)c1)c1ccc(Cl)cc1 [MLS000621431],11.2 µM,5 µM,,> 57 µM,> 57 µM,> 57 µM,,44%,,
Cc1ccc(NC(=O)CN2C(=O)S/C(=C/c3ccc(-c4cc(C(=O)O)ccc4C)o3)C2=O)cc1C [MLS000530771],19.9 µM,7.1 µM,,> 57 µM,> 57 µM,10 µM,,21%,,
